Measurements taken from ChEMBL document CHEMBL1142710, “3D-QSAR comparative molecular field analysis on opioid receptor antagonists: pooling data from different studies” (J Med Chem, 2005).

Assays:
[1] = target: T1, Mu-type opioid receptor (Rattus norvegicus, UniProt P33535); assay: Binding affinity against Opioid receptor mu 1 from rat brain membranes using [3H]DAMGO
[2] = target: T2, Delta-type opioid receptor (Rattus norvegicus, UniProt P33533); assay: Affinity against opioid receptor delta 1 in rat brain membranes determined in a competitive binding assay using [3H]DADLE as competitive ligand (Compound 62); format: cell membranes
[3] = target: T2, Delta-type opioid receptor; assay: Binding affinity against Opioid receptor delta 1 from rat brain membranes using [3H]DADLE
[4] = target: T3, Kappa-type opioid receptor (Cavia porcellus, UniProt P41144); assay: Affinity against opioid receptor kappa 1 in guinea pig brain membranes determined in a competitive binding assay using [3H]U-69593 as competitive ligand (Compound 62); format: cell membranes, Membrane
[5] = target: T3, Kappa-type opioid receptor; assay: Binding affinity against Opioid receptor kappa 1 from guinea pig brain membranes using [3H]U-69593
[6] = target: T1, Mu-type opioid receptor; assay: Affinity against opioid receptor mu 1 in rat brain membranes determined in a competitive binding assay using [3H]DAMGO as competitive ligand (Compound 62); format: cell membranes

Row | Compound | Ki [1] | Ki [2] | Ki [3] | Ki [4] | Ki [5] | Ki [6]
1 | C=C(C)CN1CC[C@]23c4c5ccc(O)c4O[C@@H]2c2[nH]c4ccccc4c2C[C@@]3(O)[C@H]1C5 | 7.94 µM | 0.00468 µM | 0.00468 µM | 3.8 µM | 3.8 µM | 7.94 µM
2 | CC(C)=CCN1CC[C@]23c4c5ccc(O)c4O[C@@H]2c2[nH]c4ccccc4c2C[C@@]3(O)[C@H]1C5 | 2.82 µM |  | 0.0251 µM |  | 3.24 µM | 
3 | C=CCN1CCC23c4c5ccc(O)c4O[C@@]2(C)c2[nH]c4ccccc4c2C[C@@]3(OCC)C1C5 (stereo not given in full) | 0.661 µM |  | 0.0107 µM |  | 0.759 µM | 
4 | Oc1ccc2c3c1O[C@@H]1c4[nH]c5ccc(-c6ccccc6)cc5c4C[C@@]4(O)[C@@H](C2)N(CC2CC2)CC[C@]314 | 0.166 µM |  | 0.0158 µM |  | 0.355 µM | 
5 | Oc1ccc2c3c1O[C@H]1c4ncc(-c5ccc(Cl)cc5)cc4C[C@@]4(O)C(C2)N(CC2CC2)CCC314 (stereo not given in full) | 0.0513 µM |  | 0.00219 µM |  | 0.02 µM | 
6 | C=C(N)NCCCC(=O)NC1CC2CC(c3cccc(O)c3)(C1)C(C)CN2CCCc1ccccc1 (stereo not given) | 0.0871 µM |  | 1.74 µM |  | 0.0132 µM | 
7 | CCCCOc1cccc2c1C13CCN(CC4CC4)C(C2)[C@]1(OCCCc1ccccc1)CCC(=O)C3 (stereo not given in full) | 0.0148 µM |  | 0.234 µM |  | 0.151 µM | 
8 | C=C(N)NCCC(=O)NC1CC2CC(c3cccc(O)c3)(C1)C(C)CN2CCCc1ccccc1 (stereo not given) | 0.00525 µM |  | 0.0562 µM |  | 0.0234 µM | 
9 | CCCN1CC[C@]23c4c5ccc(O)c4O[C@@H]2c2[nH]c4ccccc4c2C[C@@]3(O)[C@H]1C5 | 0.708 µM |  | 0.002 µM |  | 0.38 µM | 
